# Tested on: Staphylococcus epidermidis
# Assay: Antibacterial activity against Staphylococcus epidermidis ATCC 12228
# Format: functional
row,MIC [µg/mL],Structure (SMILES)
1,6.25,COC(=O)Cc1c[nH]c2cc(Br)ccc12
2,50,COC(=O)c1c[nH]c2cc(Br)ccc12
3,25,CN(C)[C@@H](Cc1c[nH]c2ccc(Br)cc12)C(=O)O
4,100,C[N+](C)(C)[C@@H](Cc1c[nH]c2ccc(Br)cc12)C(=O)O

# The next lines start with the compound.
row,Structure (SMILES),MIC [µg/mL]
1,COC1(Cc2c[nH]c3cc(Br)ccc23)C(=O)N(C)C(=N)N1C (stereo not given),100
2,CCOC1(Cc2c[nH]c3cc(Br)ccc23)C(=O)N(C)C(=N)N1C (stereo not given),12.5
3,CN1C(=N)N(C)C(Cc2c[nH]c3cc(Br)ccc23)C1=O (stereo not given),25
4,CN1C(=N)N(C)C(O)(Cc2c[nH]c3cc(Br)ccc23)C1=O (stereo not given),12.5
5,CN1C(=N)N(C)/C(=C/c2c[nH]c3ccccc23)C1=O [APLYSINOPSIN],25
6,CN[C@H](CC(C)C)C(=O)N[C@H]1C(=O)N[C@@H](CC(N)=O)C(=O)N[C@H]2C(=O)N[C@H]3C(=O)N[C@H](C(=O)N[C@H](C(=O)O)c4cc(O)cc(O)c4-c4cc3ccc4O)[C@H](O)c3ccc(c(Cl)c3)Oc3cc2cc(c3O[C@@H]2O[C@H](CO)[C@@H](O)[C@H](O)[C@H]2O[C@H]2C[C@](C)(N)[C@H](O)[C@H](C)O2)Oc2ccc(cc2Cl)[C@H]1O [VANCOMYCIN],0.625

# From ChEMBL document CHEMBL1151264, “Investigation of brominated tryptophan alkaloids from two thorectidae sponges: Thorectandra and Smenospongia” (2005)
